Assay in all cases: 3' UTR reporter interaction score (median-centred robust z-score of log2 firefly/Renilla activity); higher = less repression of the 3' UTR reporter
Common to all, as to conditions: HEK293T; 48 h

The subject of data set [1] is MYT1L. Summed up:
(§1)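 A firefly luc2P reporter carrying the gene's 3' UTR (100 ng), Renilla pRL-TK control (20 ng) and miRNA mimic (2.5 pmol) were co-transfected with DharmaFECT Duo into HEK293T cells plated at 10,000/well in 96-well plates. Luciferase activities were read 48 h post-transfection. The interaction score is the log firefly/Renilla ratio as a per-plate robust z-score from median and median absolute deviation, median-centred per miRNA, and more negative indicates interaction. Values are averages of at least two independent screens.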

Data set [2] concerns MYCN. In short, it runs like this: as §1
For data set [3], the system named is PHOX2B. In short, it runs like this: as §1
Data set [4] deals with NOTCH1. In short, it runs like this: as §1
For data set [5], the system named is MYC. Summed up: as §1
Data set [6] has as its system RB1. Summed up:
as §1

The subject of data set [7] is HRAS. In short, it runs like this:
as §1

Data set [8] relates to EZH2. In short, it runs like this:
as §1

In data set [9] the test system is BRCA2. In short, it runs like this:
as §1

The subject of data set [10] is TP53. Summed up:
as §1

The subject of data set [11] is FBXW7. Summed up: as §1
Data set [12] relates to PHF6. Summed up:
as §1

For data set [13], the system named is ZEB2. In short, it runs like this:
as §1

Data set [14] has as its system MYB. In short, it runs like this: as §1

On to UAACACUGUCUGGUAAAGAUGG, for which the “3' UTR reporter interaction score” value is -4.79 in [1]; 0.21 in data set [2]; -0.774 in data set [3]; -0.447 in data set [4]; 0.0647 in data set [5]; 0.257 in [6]. The “3' UTR reporter interaction score” value was 0.0521 in data set [7]; -0.173 in [8]; -0.392 in data set [9]; 0.617 in data set [10]; -0.104 in data set [11]; -1.93 in [12]. In addition, the “3' UTR reporter interaction score” value was -7.02 in data set [13] and 0.229 in data set [14].

For UAUGUAAUAUGGUCCACAUCUU, the “3' UTR reporter interaction score” value turned out to be 1.41 in [1]; 0.254 in [2]; 0.805 in [3]; 0.765 in data set [4]; 0.455 in data set [5]; 0.421 in data set [6]. Moreover, the “3' UTR reporter interaction score” value in [7] is -0.0539; in [8], -0.223; in data set [9] it was -0.619; in [10], -0.793; in data set [11] it was 0.706; in [12] it was -0.945. For the same sequence, the “3' UTR reporter interaction score” value in [13] is -1.16; in data set [14], 0.474.

On to UAACAGUCUCCAGUCACGGCC, for which the “3' UTR reporter interaction score” value was 1.02 in data set [1]; 0.167 in [2]; -0.145 in data set [3]; -0.389 in [4]; -0.0995 in data set [5]; -2.21 in data set [6]. Further, the “3' UTR reporter interaction score” value in [7] was -0.229; in data set [8], 0.108; in data set [9], -0.504; in data set [10], -0.811; in [11], 0.973; in data set [12] it was -0.767. The results for the “3' UTR reporter interaction score” value in [13] and in data set [14] were 1.77 and -1.89, respectively.

CUGGACUUGGAGUCAGAAGGCC: the “3' UTR reporter interaction score” value was 1.12 in [1]; 0.91 in [2]; 0.64 in data set [3]; -1.42 in data set [4]; -0.585 in data set [5]; -0.493 in [6]. The “3' UTR reporter interaction score” value is 0.243 in data set [7]; -1.01 in data set [8]; -0.913 in data set [9]; -0.688 in data set [10]; -1.21 in [11]; 0.484 in [12]. For the same sequence, the results for the “3' UTR reporter interaction score” value in [13] and in [14] were 1.96 and 1.36, respectively.

In the case of GGGCGCCUGUGAUCCCAAC, the “3' UTR reporter interaction score” value in [1] is 0.181; in [2] it was -0.708; in [3], 0.588; in [4], -0.381; in [5], -0.484; in data set [6], -0.433. For the same sequence, the “3' UTR reporter interaction score” value is -0.201 in data set [7]; 0.0894 in data set [8]; -0.242 in [9]; 0.186 in data set [10]; 0.114 in data set [11]; -0.831 in data set [12]. Besides, the “3' UTR reporter interaction score” value was -0.0882 in [13] and 0.137 in data set [14].

With AGGCGGGGCGCCGCGGGACCGC, the “3' UTR reporter interaction score” value is -0.425 in data set [1]; -0.386 in data set [2]; -0.317 in [3]; 0.236 in [4]; -0.234 in [5]; 0.467 in data set [6]. Further, the “3' UTR reporter interaction score” value in data set [7] was -0.439; in [8], -1.53; in data set [9], -0.123; in [10], -0.353; in data set [11] it was -0.475; in data set [12] it was 1.42. In addition, the “3' UTR reporter interaction score” value is 0.258 in data set [13] and -0.412 in data set [14].

For the sequence AGGUUACCCGAGCAACUUUGCA, the “3' UTR reporter interaction score” value in [1] was 2.75; in [2] it was 0.0957; in data set [3], 2.07; in data set [4], 0.652; in data set [5], -0.29; in [6], 2.97. In addition, the “3' UTR reporter interaction score” value in [7] is -1.62; in data set [8] it was -1.68; in data set [9] it was -1.98; in data set [10], -1.44; in data set [11], -1.16; in [12] it was 0.436. The “3' UTR reporter interaction score” value in data set [13] was found to be 0.562; in data set [14], 1.71.

Take UUACAGUUGUUCAACCAGUUACU: the “3' UTR reporter interaction score” value in [1] was 0.162; in data set [2] it was -1.85; in [3], -0.835; in data set [4], -0.374; in [5], 0.385; in [6] it was -3.47. Besides, the “3' UTR reporter interaction score” value is 0.218 in data set [7]; 0.156 in [8]; 1.74 in data set [9]; 0.131 in data set [10]; -1.36 in data set [11]; 1.47 in [12]. Also, the “3' UTR reporter interaction score” value is -1.76 in [13] and -0.553 in [14].

Turning to UUUGGCAAUGGUAGAACUCACA, the “3' UTR reporter interaction score” value is 0.203 in data set [1]; -0.0764 in data set [2]; 0.438 in [3]; -0.441 in [4]; -0.026 in data set [5]; 0.469 in [6]. Moreover, the “3' UTR reporter interaction score” value in data set [7] was -0.139; in [8] it was 0.322; in [9], -0.0444; in data set [10] it was 0.0472; in data set [11] it was -2.86; in data set [12] it was -0.697. Further, the “3' UTR reporter interaction score” value in [13] is 0.837; in data set [14], -1.17.

As to AUUCCUAGAAAUUGUUCAUA, the “3' UTR reporter interaction score” value is 1.2 in [1]; -0.577 in data set [2]; -0.529 in data set [3]; 0.632 in data set [4]; -0.586 in data set [5]; -0.707 in [6]. Also, the “3' UTR reporter interaction score” value in [7] is -0.0105; in [8], 0.167; in [9], 0.0394; in data set [10], -0.0494; in data set [11] it was 0.157; in data set [12], 0.216. The “3' UTR reporter interaction score” value in data set [13] was -0.418; in [14] it was 0.61.
